According to PubChem BioAssay AID1918930 (Molecular Pharmacology Branch, DTP, NCI, 2023):

Tested on: 233499-124-R-J3-PDC complex spheroid viability, % test/control
Assay: Anticancer human tumor 233499-124-R-J3-PDC patient-derived colon adenocarcinoma cell line growth inhibition
Settings: for IC50: curve of first compound; for viability, T/C: stronger effect = lower value
Summary of the method: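 Drug combinations with the LSD1 inhibitor iadademstat tested on tumor cells co-cultured as spheroids with endothelial cells and mesenchymal stem cells. Concentrations descended in half-log increments from clinical Cmax or 10 microM.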

[1] = second compound 0.1 µM, first compound 0.0316 µM
[2] = second compound 0.1 µM, first compound 0.1 µM
[3] = second compound 0.316 µM, first compound 0.0316 µM
[4] = second compound 0.316 µM, first compound 0.1 µM
[5] = second compound 1 µM, first compound 0.0316 µM
[6] = second compound 1 µM, first compound 0.1 µM
[7] = second compound 3.16 µM, first compound 0.0316 µM
[8] = second compound 3.16 µM, first compound 0.1 µM
[9] = second compound 10 µM, first compound 0.0316 µM
[10] = second compound 10 µM, first compound 0.1 µM
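Note: spheroids exposed to agents for one week before readout.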

CC1(C)CCC(CN2CCN(c3ccc(C(=O)NS(=O)(=O)c4ccc(NCC5CCOCC5)c([N+](=O)[O-])c4)c(Oc4cnc5[nH]ccc5c4)c3)CC2)=C(c2ccc(Cl)cc2)C1 + NC1CC1c1ccc(-c2cccc(O)c2)cc1
IC50 (second compound 0.1 µM): 2680 nM | IC50 (second compound 0.316 µM): 2450 nM | IC50 (second compound 1 µM): 3180 nM | IC50 (second compound 3.16 µM): 2810 nM | IC50 (second compound 10 µM): 2270 nM | viability, T/C [1]: 84.1% | viability, T/C [2]: 109% | viability, T/C (second compound 0.1 µM, first compound 0.316 µM): 113% | viability, T/C (second compound 0.1 µM, first compound 1 µM): 107% | viability, T/C (second compound 0.1 µM, first compound 3.16 µM): 41.1% | viability, T/C (second compound 0.1 µM, first compound 10 µM): 0.86% | viability, T/C [3]: 114% | viability, T/C [4]: 102% | viability, T/C (second compound 0.316 µM, first compound 0.316 µM): 100% | viability, T/C (second compound 0.316 µM, first compound 1 µM): 111% | viability, T/C (second compound 0.316 µM, first compound 3.16 µM): 33.9% | viability, T/C (second compound 0.316 µM, first compound 10 µM): 0.83% | viability, T/C [5]: 88.7% | viability, T/C [6]: 92% | viability, T/C (second compound 1 µM, first compound 0.316 µM): 97.8% | viability, T/C (second compound 1 µM, first compound 1 µM): 102% | viability, T/C (second compound 1 µM, first compound 3.16 µM): 50.2% | viability, T/C (second compound 1 µM, first compound 10 µM): 0.7% | viability, T/C [7]: 100% | viability, T/C [8]: 97.1% | viability, T/C (second compound 3.16 µM, first compound 0.316 µM): 91.4% | viability, T/C (second compound 3.16 µM, first compound 1 µM): 99.3% | viability, T/C (second compound 3.16 µM, first compound 3.16 µM): 44.6% | viability, T/C (second compound 3.16 µM, first compound 10 µM): 0.57% | viability, T/C [9]: 76.7% | viability, T/C [10]: 83.9% | viability, T/C (second compound 10 µM, first compound 0.316 µM): 72.9% | viability, T/C (second compound 10 µM, first compound 1 µM): 81.1% | viability, T/C (second compound 10 µM, first compound 3.16 µM): 38.5% | viability, T/C (second compound 10 µM, first compound 10 µM): 0.43%

Cn1ncnc1C1c2n[nH]c(=O)c3cc(F)cc(c23)NC1c1ccc(F)cc1 (stereo not given) + NC1CC1c1ccc(-c2cccc(O)c2)cc1
IC50 (second compound 0.1 µM): > 100 nM | IC50 (second compound 0.316 µM): > 100 nM | IC50 (second compound 1 µM): > 100 nM | IC50 (second compound 3.16 µM): > 100 nM | IC50 (second compound 10 µM): > 100 nM | viability, T/C (second compound 0.1 µM, first compound 0.000316 µM): 106% | viability, T/C (second compound 0.1 µM, first compound 0.001 µM): 105% | viability, T/C (second compound 0.1 µM, first compound 0.00316 µM): 105% | viability, T/C (second compound 0.1 µM, first compound 0.01 µM): 91.2% | viability, T/C [1]: 95.4% | viability, T/C [2]: 84.4% | viability, T/C (second compound 0.316 µM, first compound 0.000316 µM): 89.1% | viability, T/C (second compound 0.316 µM, first compound 0.001 µM): 108% | viability, T/C (second compound 0.316 µM, first compound 0.00316 µM): 128% | viability, T/C (second compound 0.316 µM, first compound 0.01 µM): 98.1% | viability, T/C [3]: 102% | viability, T/C [4]: 89.3% | viability, T/C (second compound 1 µM, first compound 0.000316 µM): 85.7% | viability, T/C (second compound 1 µM, first compound 0.001 µM): 83.1% | viability, T/C (second compound 1 µM, first compound 0.00316 µM): 87.5% | viability, T/C (second compound 1 µM, first compound 0.01 µM): 74.2% | viability, T/C [5]: 89.5% | viability, T/C [6]: 88.5% | viability, T/C (second compound 3.16 µM, first compound 0.000316 µM): 89.9% | viability, T/C (second compound 3.16 µM, first compound 0.001 µM): 96% | viability, T/C (second compound 3.16 µM, first compound 0.00316 µM): 90.2% | viability, T/C (second compound 3.16 µM, first compound 0.01 µM): 76.5% | viability, T/C [7]: 76.7% | viability, T/C [8]: 78.5% | viability, T/C (second compound 10 µM, first compound 0.000316 µM): 74.7% | viability, T/C (second compound 10 µM, first compound 0.001 µM): 80.6% | viability, T/C (second compound 10 µM, first compound 0.00316 µM): 69.7% | viability, T/C (second compound 10 µM, first compound 0.01 µM): 70.3% | viability, T/C [9]: 58.7% | viability, T/C [10]: 58.8%
